Reference: publication PMC10891983, “First Description of Marinoquinoline Derivatives’ Activity against Toxoplasma gondii” (Pharmaceutics, 2024)
“Also recorded” adds a separate entry of the source.

Columns and labels:
T. gondii tachyzoites = test: microbe, parasite or virus in culture; type: cell-based, Toxoplasma gondii; settings: for EC50: Toxoplasma gondii, T. gondii RH-2F1 tachyzoites in HFF, 72 h, ± SD of three independent experiments, read-out: EC50 (Half Effective Concentration); for SI (Selectivity index): CC50 (HFF)/EC50 (T. gondii)
[1] = Assay for evaluating mammalian cytotoxicity (MTT); type: cell-based; settings: human, human foreskin fibroblast (HFF) cells, ± SD of three independent experiments, read-out: CC50 (Half Cytotoxic Concentration)
[2] = system: RH strain T. gondii tachyzoites; type: in vivo
Procedure: To evaluate the effectiveness of MQ-1 in treating acute T. gondii infection in vivo, a murine model was employed, utilizing Swiss mice in accordance with established protocols. […] Treatment involved the administration of compounds dissolved in a 4% DMSO solution in water, and was conducted one day post-infection. […] . As for the control group, they were administered 100 µL of the vehicle utilized for MQ-1 dilution, consisting of a 4% DMSO solution in water. Continuous monitoring of the mice included daily assessments for signs of toxoplasmosis. These signs encompassed impaired mobility, feeding difficulties, weight loss, self-mutilation, and severe ascites. […] The implementation of humane endpoints aimed to mitigate any potential pain or suffering in the animals, leading to their euthanasia when necessary. At the end of the experimental period, euthanasia was performed on all remaining mice, and the peritoneal parasite load was estimated using a Neubauer chamber.

ME49 strain T. gondii = test: Chronic toxoplasmosis model, ME49-infected C57BL/6 mice
Description: Male Swiss mice (Mus musculus) (8 weeks old) for the acute toxoplasmosis experiments and female C57BL/6 mice (4 weeks old) for the chronic toxoplasmosis experiments were sourced from the animal breeding facility at the Universidade Federal de Alfenas, Brazil. Strict adherence to the principles of good animal practice, as outlined in the Brazilian Guidelines for Care and Utilization of Animals by the Conselho Nacional de Controle e Experimentação Animal (CONCEA), was observed during the handling of all animals. The study protocol received approval from the Ethics Committee for Animal Experimentation at the Universidade Federal de Alfenas under Protocols 033/2021 and 0006/2023. All necessary precautions were taken to minimize any potential suffering experienced by the animals.
The mice were infected with 10 cysts of the ME49 strain of T. gondii via intraperitoneal inoculation, following the protocol by [16]. After a 40-day infection period, random assignment was used to divide the mice into distinct experimental groups, each consisting of four mice. These experimental groups were subjected to different treatments: MQ-1, administered either at a dosage of 25 mg/kg/day or 12.5 mg/kg/day, prepared with a 4% DMSO solution in water. […] The administration was carried out via oral gavage, with a final volume of 100 µL per dose. For the control group, 100 µL of the vehicle used to dilute MQ-1 (4% DMSO in water) was administered. […] On the 51st day post-infection, euthanasia was performed for all animals, followed by brain tissue collection for RNA extraction and quantification, as detailed in [18]. DNA extraction and purification were carried out using the PureLink Genomic DNA Minikit (Invitrogen. Carlsbad, CA, USA) following the manufacturer’s instructions. […] After extraction, RNA samples were immediately processed for cDNA synthesis and underwent quantitative real-time (qPCR) analysis. […]
Data on parasite burden in acute and chronic infection in treated and untreated groups were analyzed for statistical significance using One-Way ANOVA, followed by the Tukey post-test. […]

[3] = vs pyrimethamine 12.5 mg/kg/day

With COc1ccc2c(c1)nc(-c1c[nH]c3ccccc13)c1[nH]ccc12 [MQ-1] the EC50 (T. gondii tachyzoites) was 1.46 ± 0.45 µM, the CC50 at 72 h [1] was 30.5 ± 1.8 µM and the “signs of toxicity throughout the treatment” value ([2]; Swiss mice, 12.5 mg/kg/day oral for 8 days) was “No signs of toxicity were observed”. The “difference between the tested compound and the standard drug, acute evaluation” value [2, 3] was “no statistically significant differences”, the “cerebral parasitic load vs vehicle” value (ME49 strain T. gondii; C57BL/6 mice, ME49 strain, 25 mg/kg/day oral for 10 consecutive days from day 41 post-infection, qPCR, p < 0.01, 25 mg/kg/day) was “significantly reduced; also recorded: significant (p < 0.01) reduction” and the “difference between the tested compound and the standard drug, chronic evaluation” value (ME49 strain T. gondii; [3]) was “no statistically significant differences”.
In the case of COc1ccc2c(c1)nc(-c1ccc(N3CCNCC3)cc1)c1[nH]ccc12 [MQ-2], the “SI (Selectivity index)” value (T. gondii tachyzoites) is reported as 17.39, the EC50 (T. gondii tachyzoites) is reported as 1.67 ± 0.4 µM and the CC50 at 72 h [1] is reported as 29.1 ± 0.84 µM.
For CC(C)(C)OC(=O)Nc1ccc(-c2nc3ccc(Cl)cc3c3cc[nH]c23)cc1 [MQ-3], the “SI (Selectivity index)” value (T. gondii tachyzoites) was 3.35, the EC50 (T. gondii tachyzoites) was 1.6 ± 0.54 µM and the CC50 at 72 h [1] was 5.36 ± 0.91 µM.
With CC(C)(C)OC(=O)Nc1ccc(-c2nc3ccc(OC(F)(F)F)cc3c3cc[nH]c23)cc1 [MQ-4] the “SI (Selectivity index)” value (T. gondii tachyzoites) was 3.18, the EC50 (T. gondii tachyzoites) was 1.31 ± 0.31 µM and the CC50 at 72 h [1] was 4.16 ± 1.05 µM.
For COc1ccc2c(c1)nc(-c1ccc(N3CCC(F)CC3)cc1)c1[nH]ccc12 [MQ-5], the “SI (Selectivity index)” value (T. gondii tachyzoites) was 3.52, the EC50 (T. gondii tachyzoites) was 1.43 ± 0.37 µM and the CC50 at 72 h [1] was 5.05 ± 1.63 µM.
With COc1ccc2c(c1)nc(-c1ccc(Br)cn1)c1[nH]ccc12 [MQ-6] the “SI (Selectivity index)” value (T. gondii tachyzoites) was 7.55, the EC50 (T. gondii tachyzoites) was 3.78 ± 0.67 µM and the CC50 at 72 h [1] was 28.6 ± 7.33 µM.
In the case of CCc1nc(N)nc(N)c1-c1ccc(Cl)cc1 [PYR, pyrimethamine, reference compound], the EC50 (T. gondii tachyzoites) is reported as 0.29 ± 0.19 µM and the CC50 at 72 h [1] is reported as 68.1 ± 4.26 µM.
